Source: PubChem BioAssay (NCI)
Where “and” joins values, the source holds several entries; their conditions need not be identical. Equal entries are not always repeated.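 All cell lines were grown in 96-well plates and treated with compound for 48 hours. At the GI50, growth is halved. The concentration for full growth arrest is given as TGI.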

Tests used:
Test in all cases: NCI anticancer screen, dose series, 48 h
[1] = system: SNB-19 CNS
[2] = system: SF-295 CNS
[3] = system: UACC-257 melanoma
[4] = system: SK-MEL-5 melanoma
[5] = system: EKVX NSCLC
[6] = system: SNB-75 CNS
[7] = system: NCI-H460 lung
[8] = system: HOP-62 NSCLC
[9] = system: U251 CNS
[10] = system: LOX IMVI melanoma

In the case of `CC(=O)NC1C(OCc2ccccc2)OC(CO)C(O)C1OC(C)C(=O)N[C@@H](C)C(=O)N[C@H](CCC(=O)OCCNc1c2ccccc2nc2cccc([N+](=O)[O-])c12)C(N)=O` (some centres not stated), the TGI [1] is reported as 0.00277 µM and 0.00694 µM, the TGI [2] is reported as 0.0339 µM and the TGI [3] is reported as 0.0201 µM. For the same compound, the TGI [4] was 0.00855 µM, the TGI [5] was 0.00472 µM and the TGI [6] was 0.0405 µM and 0.00887 µM. For the same compound, the TGI [7] was 0.00137 µM.
For `CCN1C(=O)CCCc2c1ccc(Nc1ncc(Cl)c(NC3[C@@H](C(N)=O)[C@@H]4C=C[C@H]3C4)n1)c2OC` (some centres not stated), the GI50 [8] was 2.1 µM, the TGI [8] was 13.7 µM and the GI50 [9] was 1.12 µM. For the same compound, the TGI [9] was 13.9 µM, the GI50 [10] was 0.774 µM and the TGI [10] was 2.48 µM. For the same compound, the GI50 [1] was 1.94 µM, the TGI [1] was 14 µM and the GI50 [2] was 1.45 µM. The TGI [2] was 13.3 µM, the GI50 [3] was 0.839 µM and the TGI [3] was 4.34 µM. It also gave a GI50 [4] of 1.45 µM, a TGI [4] of 4.82 µM and a GI50 [6] of 0.619 µM. The TGI [6] was 6.23 µM, the GI50 [7] was 0.661 µM and the TGI [7] was 13.4 µM.
`Nc1c(O)cc(N=C2C(=O)C=CC=C2C(=O)O)c(O)c1C(=O)O` gave a TGI [8] greater than 100 µM, a TGI [9] greater than 100 µM and a TGI [10] greater than 100 µM. It also gave a TGI [1] greater than 100 µM, a TGI [2] greater than 100 µM and a TGI [3] greater than 100 µM. For the same compound, the TGI [4] was greater than 100 µM, the TGI [5] was greater than 100 µM and the TGI [6] was greater than 100 µM.
Work on `COc1cc(-c2cc(-c3ccc(Nc4ccnc5cc(Cl)ccc45)cc3)nc(N3CCOCC3)n2)cc(OC)c1OC` yielded a GI50 [8] of 1.95 µM, a TGI [8] of 4.09 µM and a GI50 [9] of 1.62 µM. For the same compound, the TGI [9] was 3.12 µM, the GI50 [1] was 2.36 µM and the TGI [1] was 5.28 µM. For the same compound, the GI50 [2] was 1.95 µM, the TGI [2] was 4.12 µM and the GI50 [4] was 3.5 µM. For the same compound, the TGI [4] was greater than 100 µM, the GI50 [5] was 2.62 µM and the TGI [5] was 9.73 µM. The GI50 [6] was 1.65 µM, the TGI [6] was 3.44 µM and the GI50 [7] was 1.87 µM. For the same compound, the TGI [7] was 3.89 µM.
Work on `COc1ccc(C(c2ccc(OCCN(C)C)cc2)c2cc3ccccc3c3ccccc23)cc1` (configuration not stated) yielded a GI50 [8] of 1.54 µM, a TGI [8] of 3.07 µM and a GI50 [9] of 1.57 µM. It also gave a TGI [9] of 2.92 µM, a GI50 [10] of 1.64 µM and a TGI [10] of 3.06 µM. The GI50 [1] was 1.72 µM, the TGI [1] was 3.31 µM and the GI50 [2] was 1.77 µM. For the same compound, the TGI [2] was 3.33 µM, the GI50 [4] was 1.69 µM and the TGI [4] was 3.11 µM. For the same compound, the GI50 [5] was 1.59 µM, the TGI [5] was 3.3 µM and the GI50 [6] was 1.36 µM. For the same compound, the TGI [6] was 2.74 µM, the GI50 [7] was 1.79 µM and the TGI [7] was 3.29 µM.
`COC(=O)/C(=N/Nc1cccc(Cl)c1)C(C(=O)C(=O)Nc1cccc(Cl)c1C)c1nc2ccccc2nc1C` (configuration not stated) gave a TGI [8] greater than 100 µM, a TGI [2] greater than 100 µM and a TGI [3] greater than 100 µM. For the same compound, the TGI [4] was greater than 100 µM, the TGI [5] was greater than 100 µM and the TGI [7] was greater than 100 µM.
For `Cc1noc2c1C(=O)CCC2`, the TGI [10] was greater than 100 µM, the TGI [3] was greater than 100 µM and the TGI [5] was greater than 100 µM. It also gave a TGI [6] greater than 100 µM.
`Cc1cn(C2C=CC(CO)O2)c(=O)[nH]c1=O` (configuration not stated) gave a TGI [8] greater than 1000 µM, a TGI [9] greater than 1000 µM and a TGI [10] greater than 1000 µM. The TGI [1] was greater than 1000 µM, the TGI [2] was greater than 1000 µM and the TGI [3] was greater than 1000 µM. For the same compound, the TGI [4] was greater than 1000 µM, the TGI [5] was greater than 1000 µM and the TGI [6] was greater than 1000 µM.
`COC(=O)C(=CNC(N)=O)C(=O)OC` was tested, and the TGI [8] was greater than 100 µM, the TGI [10] was greater than 100 µM and the TGI [1] was greater than 100 µM. It also gave a TGI [2] greater than 100 µM, a TGI [3] greater than 100 µM and a TGI [4] greater than 100 µM. It also gave a TGI [5] greater than 100 µM and a TGI [7] greater than 100 µM.
Work on `Clc1ccc(-c2csc(Nc3cccc(-c4csc(-c5ccccc5)n4)c3)n2)cc1` yielded a GI50 [8] of 10.7 µM, a TGI [8] of 22.8 µM and a GI50 [9] of 7.39 µM. It also gave a TGI [9] of 14.1 µM, a GI50 [10] of 3.53 µM and a TGI [10] of 9.79 µM. For the same compound, the GI50 [1] was 13 µM, the TGI [1] was 27.3 µM and the GI50 [2] was 15.9 µM. It also gave a TGI [2] greater than 50 µM, a GI50 [3] of 14.9 µM and a TGI [3] of 29 µM. It also gave a GI50 [4] of 8.95 µM, a TGI [4] of 18.9 µM and a GI50 [5] of 8.36 µM. For the same compound, the TGI [5] was 17.7 µM, the GI50 [7] was 10.5 µM and the TGI [7] was 27.1 µM.
For `CN=C(NC(=S)N(C)C)N(C)C`, the TGI [8] was greater than 100 µM, the TGI [9] was greater than 100 µM and the TGI [1] was greater than 100 µM. It also gave a TGI [2] greater than 100 µM, a TGI [3] greater than 100 µM and a TGI [4] greater than 100 µM. The TGI [5] was greater than 100 µM, the TGI [6] was greater than 100 µM and the TGI [7] was greater than 100 µM.
`FC(F)(F)c1ccc(-c2cnc(-n3cc(COCCN4CCCCC4)nn3)nc2NC2CCCCCC2)cc1` was tested, and the GI50 [8] was 4.15 µM, the TGI [8] was 8.64 µM and the GI50 [9] was 3.5 µM. For the same compound, the TGI [9] was 6.87 µM, the GI50 [10] was 3.89 µM and the TGI [10] was 7.88 µM. The GI50 [1] was 3.61 µM, the TGI [1] was 7.11 µM and the GI50 [2] was 4.85 µM. It also gave a TGI [2] of 9.85 µM, a GI50 [4] of 3.46 µM and a TGI [4] of 6.74 µM. For the same compound, the GI50 [6] was 2.72 µM, the TGI [6] was 6.4 µM and the GI50 [7] was 4.57 µM. It also gave a TGI [7] of 8.84 µM.
With `Cc1cc(-c2ccccc2)nc(Nc2nc3ccccc3o2)n1` the TGI [8] was greater than 100 µM, the TGI [9] was greater than 100 µM and the TGI [10] was greater than 100 µM. It also gave a TGI [1] greater than 100 µM, a TGI [2] greater than 100 µM and a TGI [3] greater than 100 µM. For the same compound, the TGI [4] was greater than 100 µM, the TGI [5] was greater than 100 µM and the TGI [7] was greater than 100 µM.
`Oc1ccc(O)c(-c2cc(-c3ccc(Cl)cc3)nn2-c2ccccc2)c1` showed a GI50 [2] of 20 µM, a TGI [2] of 39.2 µM and a GI50 [3] of 4.95 µM. It also gave a TGI [3] of 19.1 µM, a GI50 [4] of 10.1 µM and a TGI [4] of 28.8 µM. It also gave a GI50 [5] of 23.9 µM, a TGI [5] of 51.1 µM and a GI50 [7] of 3.77 µM. For the same compound, the TGI [7] was greater than 100 µM.
